{"source": "PubChem BioAssay (NCI)", "assay_in_all_cases": "inhibition of tumour cell growth, NCI panel, 48 h", "key": {"LOX IMVI melanoma": {"system": "LOX IMVI melanoma"}, "DU-145 prostate": {"system": "DU-145 prostate"}, "SR leukemia": {"system": "SR leukemia"}, "SW-620 colon": {"system": "SW-620 colon"}, "SK-MEL-5 melanoma": {"system": "SK-MEL-5 melanoma"}, "HCT-116 colon": {"system": "HCT-116 colon"}, "SN12C renal": {"system": "SN12C renal"}, "NCI-H226 lung": {"system": "NCI-H226 lung"}, "BT-549 breast": {"system": "BT-549 breast"}, "UACC-257 melanoma": {"system": "UACC-257 melanoma"}, "HCT-15 colon": {"system": "HCT-15 colon"}, "SK-MEL-2 melanoma": {"system": "SK-MEL-2 melanoma"}, "MDA-MB-435": {"system": "MDA-MB-435"}, "HS 578T breast": {"system": "HS 578T breast"}, "HT29 colon": {"system": "HT29 colon"}, "RPMI-8226 leukemia": {"system": "RPMI-8226 leukemia"}, "OVCAR-3 ovarian": {"system": "OVCAR-3 ovarian"}, "SF-539 CNS": {"system": "SF-539 CNS"}, "MDA-MB-231 breast": {"system": "MDA-MB-231 breast"}, "KM12 colon": {"system": "KM12 colon"}, "M14 melanoma": {"system": "M14 melanoma"}, "OVCAR-4 ovarian": {"system": "OVCAR-4 ovarian"}, "NCI-H23 lung": {"system": "NCI-H23 lung"}, "A498 renal": {"system": "A498 renal"}, "NCI-H460 lung": {"system": "NCI-H460 lung"}, "MDA-MB-468 breast": {"system": "MDA-MB-468 breast"}, "CCRF-CEM leukemia": {"system": "CCRF-CEM leukemia"}, "NCI/ADR-RES ovarian": {"system": "NCI/ADR-RES ovarian"}, "UO-31 renal": {"system": "UO-31 renal"}, "T-47D breast": {"system": "T-47D breast"}}, "note": "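1) Cells in 96-well plates. 2) Compound, 48 h, 5 concentrations. 3) Linear interpolation between surrounding doses. 4) Unreached endpoint = highest concentration. Here, GI50 denotes the concentration required for 50% inhibition of growth. TGI: concentration producing complete growth inhibition.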", "data": [{"smiles": "Cc1ccc(C(=O)NN2C(=O)/C(=C/C=C/c3ccc([N+](=O)[O-])o3)SC2=S)cc1", "values": [{"measurement": "TGI", "setting": "LOX IMVI melanoma", "value": 352, "unit": "nM"}, {"measurement": "GI50", "setting": "DU-145 prostate", "value": 1500, "unit": "nM"}, {"measurement": "TGI", "setting": "DU-145 prostate", "value": 2920, "unit": "nM"}, {"measurement": "GI50", "setting": "SR leukemia", "value": 46.8, "unit": "nM"}, {"measurement": "TGI", "setting": "SR leukemia", "value": "> 100", "unit": "µM"}, {"measurement": "GI50", "setting": "SW-620 colon", "value": 181, "unit": "nM"}, {"measurement": "TGI", "setting": "SW-620 colon", "value": 389, "unit": "nM"}, {"measurement": "GI50", "setting": "SK-MEL-5 melanoma", "value": 337, "unit": "nM"}, {"measurement": "TGI", "setting": "SK-MEL-5 melanoma", "value": 1240, "unit": "nM"}, {"measurement": "GI50", "setting": "HCT-116 colon", "value": 139, "unit": "nM"}, {"measurement": "TGI", "setting": "HCT-116 colon", "value": 290, "unit": "nM"}, {"measurement": "GI50", "setting": "SN12C renal", "value": 207, "unit": "nM"}, {"measurement": "TGI", "setting": "SN12C renal", "value": 535, "unit": "nM"}, {"measurement": "GI50", "setting": "NCI-H226 lung", "value": 509, "unit": "nM"}, {"measurement": "TGI", "setting": "NCI-H226 lung", "value": 1240, "unit": "nM"}, {"measurement": "GI50", "setting": "BT-549 breast", "value": 218, "unit": "nM"}, {"measurement": "TGI", "setting": "BT-549 breast", "value": 705, "unit": "nM"}, {"measurement": "GI50", "setting": "UACC-257 melanoma", "value": 1670, "unit": "nM"}, {"measurement": "TGI", "setting": "UACC-257 melanoma", "value": 3.55, "unit": "µM"}, {"measurement": "GI50", "setting": "HCT-15 colon", "value": 125, "unit": "nM"}, {"measurement": "TGI", "setting": "HCT-15 colon", "value": 295, "unit": "nM"}, {"measurement": "GI50", "setting": "SK-MEL-2 melanoma", "value": 283, "unit": "nM"}, {"measurement": "TGI", "setting": "SK-MEL-2 melanoma", "value": 904, "unit": "nM"}, {"measurement": "GI50", "setting": "MDA-MB-435", "value": 267, "unit": "nM"}, {"measurement": "TGI", "setting": "MDA-MB-435", "value": 800, "unit": "nM"}, {"measurement": "GI50", "setting": "HS 578T breast", "value": 1860, "unit": "nM"}, {"measurement": "TGI", "setting": "HS 578T breast", "value": 6.54, "unit": "µM"}, {"measurement": "GI50", "setting": "HT29 colon", "value": 222, "unit": "nM"}, {"measurement": "TGI", "setting": "HT29 colon", "value": 542, "unit": "nM"}, {"measurement": "GI50", "setting": "RPMI-8226 leukemia", "value": 267, "unit": "nM"}, {"measurement": "TGI", "setting": "RPMI-8226 leukemia", "value": 1170, "unit": "nM"}, {"measurement": "GI50", "setting": "OVCAR-3 ovarian", "value": 752, "unit": "nM"}, {"measurement": "TGI", "setting": "OVCAR-3 ovarian", "value": 2630, "unit": "nM"}, {"measurement": "GI50", "setting": "SF-539 CNS", "value": 251, "unit": "nM"}, {"measurement": "TGI", "setting": "SF-539 CNS", "value": 718, "unit": "nM"}, {"measurement": "GI50", "setting": "MDA-MB-231 breast", "value": 185, "unit": "nM"}, {"measurement": "TGI", "setting": "MDA-MB-231 breast", "value": 373, "unit": "nM"}, {"measurement": "GI50", "setting": "KM12 colon", "value": 1160, "unit": "nM"}, {"measurement": "TGI", "setting": "KM12 colon", "value": 4.49, "unit": "µM"}, {"measurement": "GI50", "setting": "M14 melanoma", "value": 202, "unit": "nM"}, {"measurement": "TGI", "setting": "M14 melanoma", "value": 436, "unit": "nM"}, {"measurement": "GI50", "setting": "OVCAR-4 ovarian", "value": 1600, "unit": "nM"}, {"measurement": "TGI", "setting": "OVCAR-4 ovarian", "value": 3.1, "unit": "µM"}, {"measurement": "GI50", "setting": "NCI-H23 lung", "value": 337, "unit": "nM"}, {"measurement": "TGI", "setting": "NCI-H23 lung", "value": 1170, "unit": "nM"}, {"measurement": "GI50", "setting": "A498 renal", "value": 9.16, "unit": "µM"}, {"measurement": "TGI", "setting": "A498 renal", "value": 22.9, "unit": "µM"}, {"measurement": "GI50", "setting": "NCI-H460 lung", "value": 399, "unit": "nM"}, {"measurement": "TGI", "setting": "NCI-H460 lung", "value": 1570, "unit": "nM"}, {"measurement": "GI50", "setting": "MDA-MB-468 breast", "value": 1500, "unit": "nM"}, {"measurement": "TGI", "setting": "MDA-MB-468 breast", "value": 3.12, "unit": "µM"}, {"measurement": "GI50", "setting": "CCRF-CEM leukemia", "value": 238, "unit": "nM"}, {"measurement": "TGI", "setting": "CCRF-CEM leukemia", "value": 826, "unit": "nM"}, {"measurement": "GI50", "setting": "NCI/ADR-RES ovarian", "value": 1220, "unit": "nM"}, {"measurement": "TGI", "setting": "NCI/ADR-RES ovarian", "value": 2880, "unit": "nM"}, {"measurement": "GI50", "setting": "UO-31 renal", "value": 1210, "unit": "nM"}, {"measurement": "TGI", "setting": "UO-31 renal", "value": 2450, "unit": "nM"}, {"measurement": "GI50", "setting": "T-47D breast", "value": 1730, "unit": "nM"}, {"measurement": "TGI", "setting": "T-47D breast", "value": 3.48, "unit": "µM"}]}]}
